Consider 5 compounds from patent publication US20210038585A1 (Tesaro, Inc., priority 2017, published 2021).

For data set [1] the following is noted: drug substance. On the procedure: These batches were divided into sub-lots at various time intervals and each sub-lot was analyzed for content uniformity.
The conditions of data set [2]: crystalline solid drug substance.
Data set [3] has as its system intracellular PARP activity.
In data set [4] the test system is tumor models.
Data set [5] is described as follows: in vivo. The conditions noted are these: 50 mg/kg.
Data set [6] concerns intracellular PARP activity. The following applies: read-out: inhibited PARP activity in a whole cell assay, EC50; cited from earlier work.
Data set [7] has as its system cancer cells with mutant BRCA-1 and BRCA-2. The following applies: read-out: inhibited proliferation, CC50; cited from earlier work.
The nature of data set [8]: shear cell tests using a FT-4 powder rheometer. It counts as physicochemical. The conditions noted are these: niraparib drug substance; for BD (bulk density): shear cell test. On the procedure:
As used herein, “flow function” or FF is a parameter commonly used to rank powder's flowability and is determined using a shear test. The data produced in the shear test represents the relationship between shear stress and normal stress, which can be plotted to define the powder's Yield Locus. Fitting Mohr stress circles to the yield locus identifies the Major Principle Stress (MPS) and Unconfined Yield Strength (UYS). Flow function is the ratio of Major Principle Stress (MPS) to the Unconfined Yield Strength (UYS):
Shear testing can be used measure powder shear properties which involves the stress limit required to initiate a powder flow. The shear testing uses a segmented rotational shear cell head and a 10 ml powder sample in the borosilicate test vessel. Powder is filled into the vessel. The shear cell head is simultaneously rotated and moved axially under the powder sample at pre-determined normal stresses as the shear stresses are measured to calculate several parameters, including the flow function (FF). Usually, powders of low cohesion have higher FF and that represents better flow properties. The permeability test can measure the ease of air transmission through a bulk powder which can be related to the powder's flowability. For example, a permeability testing can use a vented piston with an aeration base and 10 mL powder sample in the borosilicated test vessel.
Samples of powder compositions were prepared to evaluate the powder compositions disclosed herein. The following tests/measurements were made using a FT-4 powder rheometer from Freeman technology.
The cohesion (kPa), Unconfined Yield Strength (UYS) (kPa), Maj or Principle Stress (MPS) (kPa), flow function (FF) (MPS/UYS), Angle of internal friction (AIF), and bulk density (BD) (g/cm^3) were determined by carrying out shear cell tests using a FT-4 powder rheometer and the results can be seen in the tables below: […]

The nature of data set [9]: wall friction test, FT-4 powder rheometer, stainless steel discs. The following applies: niraparib batches, Ra 0.05; for BD (bulk density): wall friction test. The data set is classed as physicochemical. An excerpt:
A Wall Friction test can be used to provide a measurement of the sliding resistance between a powder and the surface of process equipment, such as an encapsulator or blender or hopper. This can be important for understanding discharge behavior from hoppers, continuity of flow in transfer chutes and tablet ejection forces. It is also useful when investigating whether a powder will adhere to the wall of process equipment and various other surfaces, such as the inside of sachets, capsules and other packaging material. The measurement principle is very similar to the shear cell test, but rather than shearing powder against powder, in this test a coupon of material representing the process equipment wall is sheared against the powder in question. The FT4 Wall Friction accessory allows for a range of coupons to be investigated, and bespoke surfaces can be manufactured if required. Data is typically represented as a plot of shear stress against normal stress, allowing the determination of Wall Friction Angle (phi). The greater the wall friction angle, the higher the resistance between the powder and wall coupon.
The measurement principle is very similar to the shear cell test, but rather than shearing powder against powder, in this test a coupon of material representing the process equipment wall is sheared against the powder in question. The FT4 Wall Friction accessory allows for a range of coupons to be investigated. Wall Friction is typically represented as a plot of shear stress against normal stress, allowing the determination of Wall Friction Angle (phi). The greater the wall friction angle, the higher the resistance between the powder and wall coupon.
A wall friction test method was developed to assess the interaction between the drug substance and stainless steel. […]
The head continues to move downwards until the required normal stress is established. […] The torque required to maintain this rotational is measured which enables a “steady-state” shear stress to be calculated. […] A series of shear stress values is measured for a range of target applied stresses. […]

pEC50, pIC50: −log10 of the molar value. Several values for one entry are separate records, joined by “and”; a condition that tells them apart may be missing. Identical values can stand only once. Like-named read-outs stand apart in the source and are kept apart here.

With `Cc1ccc(S(=O)(=O)O)cc1.NC(=O)c1cccc2cn(-c3ccc([C@@H]4CCCNC4)cc3)nc12` [Niraparib tosylate monohydrate, 2-{4-[(3S)-piperidin-3-yl]phenyl}-2H-indazole 7-carboxamide 4-methylbenzenesulfonate hydrate (1:1:1)], in data set [1], the bulk density was 0.34-0.45 g/cc and the tapped density is 0.53-0.66 g/cc. Further, the hygroscopicity entry in [2] was “non-hygroscopic”.
With `NC(=O)c1cccc2cn(-c3ccc([C@@H]4CCCNC4)cc3)nc12` [Niraparib, 2-{4-[(3S)-piperidin-3-yl]phenyl}-2H-indazole-7-carboxamide], the “intracellular PARP activity IC90” value in data set [3] (mass concentration equivalent) was 0.016 mg/L. Besides, the pIC50 in [3] (read-out: intracellular PARP activity IC50) is 8.40. The IC90 in [3] (read-out: intracellular PARP activity IC90) is 50 nM. The tumor regression result in data set [4] (50 mg/kg, daily dosing) was “tumor regression”; in [4] (dosing switched from 75 mg/kg olaparib to 50 mg/kg niraparib), “tumor regression was achieved”. For the same compound, the concentration at 6 h in data set [5] was approximately 4.57 µg/mL. In addition, the pEC50 in [6] is 8.40. In data set [7], the CC50 was 10 to 100 nM.
As to `Cc1ccc(S(=O)(=O)O)cc1.NC(=O)c1cccc2cn(-c3ccc(C4CCCNC4)cc3)nc12.O` (stereo not drawn) [Non Milled, Annealed A], in [8], the “AIF (Angle of internal friction)” value is 36.54 ° and 35.80 °; the Cohesion is 1.10 kPa and 1.02 kPa; the “FF, flow function (MPS/UYS)” value is 4.27 and 4.66; the “MPS (Major Principle Stress)” value is 18.64 kPa and 18.50 kPa. Further, in data set [8], the “UYS (Unconfined Yield Strength)” value is 4.36 kPa and 3.97 kPa; the “BD (bulk density)” value was 0.38 g/mL and 0.37 g/mL. The “BD (bulk density)” value in data set [9] is 0.37 g/mL and 0.38 g/mL and 0.39 g/mL.
Turning to `Cc1ccc(S(=O)(=O)O)cc1.NC(=O)c1cccc2cn(-c3ccc(C4CCCNC4)cc3)nc12.O` (stereo not drawn) [Non Milled, Annealed D], in [8], the “AIF (Angle of internal friction)” value was 30.49 ° and 31.30 °; the Cohesion was 1.14 kPa and 1.06 kPa; the “FF, flow function (MPS/UYS)” value was 4.12 and 4.32; the “MPS (Major Principle Stress)” value was 16.44 kPa and 16.24 kPa. In data set [8], the “UYS (Unconfined Yield Strength)” value was 3.99 kPa and 3.76 kPa; the “BD (bulk density)” value was 0.44 g/mL and 0.46 g/mL. In addition, in data set [9], the “WFA (Wall friction angle)” value is 27.29 ° and 31.10 ° and 30.98 °; the “BD (bulk density)” value was 0.44 g/mL and 0.46 g/mL and 0.45 g/mL.
For the compound `O=C(c1cc(Cc2n[nH]c(=O)c3ccccc23)ccc1F)N1CCN(C(=O)C2CC2)CC1` [olaparib], the tumor regression entry in data set [4] (same model, dose of 75 mg/kg) is “did not result in tumor regression”.
